In ChEMBL document CHEMBL5465560, “Selectivity Literature for EUbOPEN Chemogenomic Library” (2024):

How the values were obtained:
[1] = tested on: Receptor-type tyrosine-protein kinase FLT3 (Homo sapiens), P36888 [UNDEFINED MUTATION]; assay: Selectivity interaction (KinomeScan (DiscoverX)) EUB0000311b FLT3; conditions: at 1 µM
[2] = molecular target: Homeodomain-interacting protein kinase 2 (Homo sapiens, UniProt Q9H2X6); assay: Selectivity interaction (KinomeScan (DiscoverX)) EUB0000666a HIPK2; conditions: at 10 µM
[3] = molecular target: Serine/threonine-protein kinase/endoribonuclease IRE1 (Homo sapiens) (UniProt O75460); assay: Selectivity interaction (KinomeScan (DiscoverX)) EUB0000666a ERN1; conditions: at 10 µM
Chain of Serine/threonine-protein kinase/endoribonuclease IRE1 (Homo sapiens) (O75460 19-977 limits assumed): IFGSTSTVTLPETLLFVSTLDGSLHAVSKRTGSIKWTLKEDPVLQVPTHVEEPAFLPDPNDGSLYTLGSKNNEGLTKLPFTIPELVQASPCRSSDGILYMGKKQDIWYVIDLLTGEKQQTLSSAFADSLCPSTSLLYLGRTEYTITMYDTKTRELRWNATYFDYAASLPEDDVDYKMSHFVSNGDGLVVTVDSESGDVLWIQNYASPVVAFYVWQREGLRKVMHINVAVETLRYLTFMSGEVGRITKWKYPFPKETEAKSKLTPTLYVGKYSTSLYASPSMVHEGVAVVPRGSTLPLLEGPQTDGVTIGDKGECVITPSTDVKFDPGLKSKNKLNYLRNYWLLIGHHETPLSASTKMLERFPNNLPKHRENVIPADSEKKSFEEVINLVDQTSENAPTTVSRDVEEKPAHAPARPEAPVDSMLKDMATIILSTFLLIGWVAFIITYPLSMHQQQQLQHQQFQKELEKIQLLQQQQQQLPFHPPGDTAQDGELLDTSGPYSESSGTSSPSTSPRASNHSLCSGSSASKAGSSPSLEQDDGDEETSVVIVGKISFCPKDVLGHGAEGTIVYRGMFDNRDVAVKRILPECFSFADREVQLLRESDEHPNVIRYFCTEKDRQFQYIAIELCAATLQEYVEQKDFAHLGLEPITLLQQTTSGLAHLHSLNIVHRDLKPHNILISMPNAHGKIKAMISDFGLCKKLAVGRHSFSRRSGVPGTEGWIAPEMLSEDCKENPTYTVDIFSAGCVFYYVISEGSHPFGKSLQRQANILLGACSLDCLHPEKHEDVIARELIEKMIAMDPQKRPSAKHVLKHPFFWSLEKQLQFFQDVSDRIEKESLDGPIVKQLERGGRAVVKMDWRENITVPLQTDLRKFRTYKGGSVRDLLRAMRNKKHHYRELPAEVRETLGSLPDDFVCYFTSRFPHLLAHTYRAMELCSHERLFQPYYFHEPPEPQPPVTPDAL

[4] = molecular target: T1, Dual serine/threonine and tyrosine protein kinase (Homo sapiens) (UniProt Q6XUX3); assay: Selectivity interaction (KinomeScan (DiscoverX)) EUB0000666a DSTYK; conditions: at 10 µM
T1 sequence (whole entry): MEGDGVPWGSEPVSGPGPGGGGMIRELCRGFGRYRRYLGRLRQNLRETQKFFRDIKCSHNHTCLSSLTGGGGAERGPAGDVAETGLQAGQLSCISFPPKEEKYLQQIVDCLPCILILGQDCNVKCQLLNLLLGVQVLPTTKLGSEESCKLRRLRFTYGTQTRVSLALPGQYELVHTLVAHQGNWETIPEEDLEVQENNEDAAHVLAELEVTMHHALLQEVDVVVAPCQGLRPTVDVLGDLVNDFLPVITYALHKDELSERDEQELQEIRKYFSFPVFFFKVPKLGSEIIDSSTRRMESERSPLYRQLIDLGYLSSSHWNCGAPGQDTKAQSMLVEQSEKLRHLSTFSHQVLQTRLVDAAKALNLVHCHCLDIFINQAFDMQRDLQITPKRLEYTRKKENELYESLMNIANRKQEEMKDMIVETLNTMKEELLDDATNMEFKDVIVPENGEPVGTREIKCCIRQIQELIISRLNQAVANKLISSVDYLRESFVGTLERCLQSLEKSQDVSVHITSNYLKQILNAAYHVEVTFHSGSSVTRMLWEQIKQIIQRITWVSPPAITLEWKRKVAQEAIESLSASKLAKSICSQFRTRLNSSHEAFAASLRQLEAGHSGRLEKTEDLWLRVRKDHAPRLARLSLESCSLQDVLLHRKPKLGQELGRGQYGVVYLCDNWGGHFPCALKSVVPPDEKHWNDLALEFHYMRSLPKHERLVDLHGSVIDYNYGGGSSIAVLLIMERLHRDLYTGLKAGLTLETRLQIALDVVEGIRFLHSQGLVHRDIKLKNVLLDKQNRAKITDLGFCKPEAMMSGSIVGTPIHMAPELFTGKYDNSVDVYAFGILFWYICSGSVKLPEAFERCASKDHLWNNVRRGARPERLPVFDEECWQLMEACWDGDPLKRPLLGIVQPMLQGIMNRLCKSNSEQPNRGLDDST

[5] = molecular target: Protein-tyrosine kinase 6 (Homo sapiens, UniProt Q13882); assay: Selectivity interaction (KinaseProfiler screening (Millipore)) EUB0000601a PTK6; conditions: at 3 µM
Chain of Protein-tyrosine kinase 6 (Q13882 whole entry, looked up): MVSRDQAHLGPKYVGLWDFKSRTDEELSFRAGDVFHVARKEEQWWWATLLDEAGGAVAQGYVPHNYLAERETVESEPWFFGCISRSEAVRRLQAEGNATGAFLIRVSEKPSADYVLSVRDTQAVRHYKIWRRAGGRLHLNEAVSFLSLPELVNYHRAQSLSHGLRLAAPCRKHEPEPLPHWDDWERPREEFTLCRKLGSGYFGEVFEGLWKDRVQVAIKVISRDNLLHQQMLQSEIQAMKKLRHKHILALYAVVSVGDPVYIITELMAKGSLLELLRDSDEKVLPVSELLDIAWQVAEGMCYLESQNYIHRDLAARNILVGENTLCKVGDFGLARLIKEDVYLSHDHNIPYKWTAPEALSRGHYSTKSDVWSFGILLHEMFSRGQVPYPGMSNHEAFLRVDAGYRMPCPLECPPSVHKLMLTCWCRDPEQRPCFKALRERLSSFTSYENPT

[6] = molecular target: Ribosomal protein S6 kinase alpha-5 (Homo sapiens) (UniProt O75582); assay: Selectivity interaction (KinomeScan (DiscoverX)) EUB0000229b RPS6KA5; conditions: at 10 µM
Chain of Ribosomal protein S6 kinase alpha-5 (Homo sapiens) (O75582 whole entry, looked up): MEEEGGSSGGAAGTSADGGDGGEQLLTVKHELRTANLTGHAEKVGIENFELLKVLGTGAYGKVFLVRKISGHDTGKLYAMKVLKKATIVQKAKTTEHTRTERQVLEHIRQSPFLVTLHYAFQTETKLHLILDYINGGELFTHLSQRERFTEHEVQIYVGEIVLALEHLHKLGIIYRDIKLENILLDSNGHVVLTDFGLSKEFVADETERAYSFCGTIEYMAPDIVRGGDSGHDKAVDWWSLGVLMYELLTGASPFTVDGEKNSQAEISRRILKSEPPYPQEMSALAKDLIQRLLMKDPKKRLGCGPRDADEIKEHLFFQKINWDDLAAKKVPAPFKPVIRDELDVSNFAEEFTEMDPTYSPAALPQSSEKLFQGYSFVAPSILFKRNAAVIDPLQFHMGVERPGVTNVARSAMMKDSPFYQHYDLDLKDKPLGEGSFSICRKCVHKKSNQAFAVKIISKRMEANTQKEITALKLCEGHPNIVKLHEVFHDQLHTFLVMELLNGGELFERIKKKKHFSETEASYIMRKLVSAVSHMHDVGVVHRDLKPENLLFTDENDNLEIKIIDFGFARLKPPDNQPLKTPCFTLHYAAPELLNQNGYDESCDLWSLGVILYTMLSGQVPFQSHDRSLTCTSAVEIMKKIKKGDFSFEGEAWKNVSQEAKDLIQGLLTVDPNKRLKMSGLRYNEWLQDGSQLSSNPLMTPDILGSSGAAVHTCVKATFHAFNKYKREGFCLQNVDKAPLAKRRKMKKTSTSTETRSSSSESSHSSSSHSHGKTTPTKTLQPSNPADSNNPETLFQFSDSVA

[7] = molecular target: Fibroblast growth factor receptor 1 (Homo sapiens, UniProt P11362); assay: Selectivity interaction (Kinase panel (DSF assay)) EUB0001559a FGFR1
Chain of Fibroblast growth factor receptor 1 (P11362 22-822 limits assumed): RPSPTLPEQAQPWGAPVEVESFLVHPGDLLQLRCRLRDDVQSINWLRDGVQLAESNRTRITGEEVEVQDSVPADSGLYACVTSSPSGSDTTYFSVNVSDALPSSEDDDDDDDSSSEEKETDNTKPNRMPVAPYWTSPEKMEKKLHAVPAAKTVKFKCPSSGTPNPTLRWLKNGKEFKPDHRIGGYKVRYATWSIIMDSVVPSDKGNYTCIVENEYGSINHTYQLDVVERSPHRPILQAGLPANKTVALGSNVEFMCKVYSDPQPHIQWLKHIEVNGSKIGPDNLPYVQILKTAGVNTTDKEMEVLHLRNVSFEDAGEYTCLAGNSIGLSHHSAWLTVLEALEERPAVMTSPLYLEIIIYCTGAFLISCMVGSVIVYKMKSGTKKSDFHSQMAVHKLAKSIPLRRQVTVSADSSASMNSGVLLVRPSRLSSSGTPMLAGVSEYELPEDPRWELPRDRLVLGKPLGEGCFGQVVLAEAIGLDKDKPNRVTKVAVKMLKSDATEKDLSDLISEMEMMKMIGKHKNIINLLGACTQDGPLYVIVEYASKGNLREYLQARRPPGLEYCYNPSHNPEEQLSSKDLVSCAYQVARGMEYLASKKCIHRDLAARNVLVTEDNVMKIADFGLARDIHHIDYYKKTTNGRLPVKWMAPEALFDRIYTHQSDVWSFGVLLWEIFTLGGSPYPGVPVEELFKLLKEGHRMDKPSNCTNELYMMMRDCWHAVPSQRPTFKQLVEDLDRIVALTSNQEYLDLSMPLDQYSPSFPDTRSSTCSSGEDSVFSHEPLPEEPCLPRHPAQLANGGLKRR

[8] = molecular target: T2, Cyclin-G-associated kinase (Homo sapiens) (UniProt O14976); assay: Selectivity interaction (ActivX KiNativ screen (kinase selectivity in THP-1 cell lysates)) EUB0000639a GAK; format: subcellular; conditions: lysate
T2 sequence (whole entry): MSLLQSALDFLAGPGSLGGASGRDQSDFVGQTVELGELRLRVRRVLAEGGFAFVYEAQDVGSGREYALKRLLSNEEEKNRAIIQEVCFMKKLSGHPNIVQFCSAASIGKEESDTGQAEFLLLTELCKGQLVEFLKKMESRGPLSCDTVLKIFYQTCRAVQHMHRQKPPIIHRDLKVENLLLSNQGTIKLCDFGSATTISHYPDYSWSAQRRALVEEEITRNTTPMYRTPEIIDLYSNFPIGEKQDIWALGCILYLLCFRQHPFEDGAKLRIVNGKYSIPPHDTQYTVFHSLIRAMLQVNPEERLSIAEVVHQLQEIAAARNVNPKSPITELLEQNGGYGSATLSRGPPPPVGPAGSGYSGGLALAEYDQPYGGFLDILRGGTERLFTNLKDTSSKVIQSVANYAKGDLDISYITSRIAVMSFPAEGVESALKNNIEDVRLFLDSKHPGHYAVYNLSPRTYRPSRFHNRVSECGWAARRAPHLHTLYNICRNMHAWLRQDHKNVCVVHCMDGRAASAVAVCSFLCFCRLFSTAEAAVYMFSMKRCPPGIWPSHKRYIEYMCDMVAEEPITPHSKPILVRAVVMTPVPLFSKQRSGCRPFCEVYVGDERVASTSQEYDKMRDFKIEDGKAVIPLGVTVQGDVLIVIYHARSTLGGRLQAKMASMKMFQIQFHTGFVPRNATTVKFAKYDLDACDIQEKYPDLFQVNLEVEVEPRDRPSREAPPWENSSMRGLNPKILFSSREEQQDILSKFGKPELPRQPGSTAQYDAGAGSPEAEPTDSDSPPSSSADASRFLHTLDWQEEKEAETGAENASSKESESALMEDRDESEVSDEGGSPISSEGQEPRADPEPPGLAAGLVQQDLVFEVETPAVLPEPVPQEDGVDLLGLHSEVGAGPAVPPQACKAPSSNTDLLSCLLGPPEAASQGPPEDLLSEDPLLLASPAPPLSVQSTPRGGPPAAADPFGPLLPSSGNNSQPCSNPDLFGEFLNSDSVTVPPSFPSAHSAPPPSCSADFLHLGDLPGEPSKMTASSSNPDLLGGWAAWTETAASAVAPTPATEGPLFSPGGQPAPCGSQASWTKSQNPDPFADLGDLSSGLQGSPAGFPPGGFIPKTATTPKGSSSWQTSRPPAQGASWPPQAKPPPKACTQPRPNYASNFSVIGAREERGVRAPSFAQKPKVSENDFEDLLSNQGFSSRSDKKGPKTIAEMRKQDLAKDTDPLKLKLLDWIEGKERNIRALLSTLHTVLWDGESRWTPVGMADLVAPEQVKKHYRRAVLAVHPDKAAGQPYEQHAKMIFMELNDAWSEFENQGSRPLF

[9] = molecular target: Serine/threonine-protein kinase PLK2 (Homo sapiens, UniProt Q9NYY3); conditions: at 10 µM
[10] = molecular target: Cyclin-dependent kinase-like 3 (Homo sapiens) (UniProt Q8IVW4); assay: Selectivity interaction (KinomeScan (DiscoverX)) EUB0000655a CDKL3; conditions: at 10 µM
Chain of Cyclin-dependent kinase-like 3 (Homo sapiens) (Q8IVW4 whole entry, looked up): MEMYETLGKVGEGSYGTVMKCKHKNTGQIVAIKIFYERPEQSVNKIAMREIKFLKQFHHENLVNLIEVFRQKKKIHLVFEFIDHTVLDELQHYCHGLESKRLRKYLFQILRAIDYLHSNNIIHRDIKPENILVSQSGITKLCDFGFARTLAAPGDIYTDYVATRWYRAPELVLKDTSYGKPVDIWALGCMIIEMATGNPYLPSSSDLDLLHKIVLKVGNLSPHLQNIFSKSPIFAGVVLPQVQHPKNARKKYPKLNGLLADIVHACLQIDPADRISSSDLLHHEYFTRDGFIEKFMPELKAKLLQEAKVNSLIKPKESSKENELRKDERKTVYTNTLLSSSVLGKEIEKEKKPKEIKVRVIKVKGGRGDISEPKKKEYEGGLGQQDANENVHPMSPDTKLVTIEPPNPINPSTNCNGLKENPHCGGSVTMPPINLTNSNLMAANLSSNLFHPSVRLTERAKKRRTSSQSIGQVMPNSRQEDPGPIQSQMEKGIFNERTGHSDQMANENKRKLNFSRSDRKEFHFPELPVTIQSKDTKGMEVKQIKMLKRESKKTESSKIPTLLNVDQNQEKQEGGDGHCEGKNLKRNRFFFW

Chain of Receptor-type tyrosine-protein kinase FLT3 (Homo sapiens), P36888 [UNDEFINED MUTATION] (P36888 whole entry, looked up, change not shown): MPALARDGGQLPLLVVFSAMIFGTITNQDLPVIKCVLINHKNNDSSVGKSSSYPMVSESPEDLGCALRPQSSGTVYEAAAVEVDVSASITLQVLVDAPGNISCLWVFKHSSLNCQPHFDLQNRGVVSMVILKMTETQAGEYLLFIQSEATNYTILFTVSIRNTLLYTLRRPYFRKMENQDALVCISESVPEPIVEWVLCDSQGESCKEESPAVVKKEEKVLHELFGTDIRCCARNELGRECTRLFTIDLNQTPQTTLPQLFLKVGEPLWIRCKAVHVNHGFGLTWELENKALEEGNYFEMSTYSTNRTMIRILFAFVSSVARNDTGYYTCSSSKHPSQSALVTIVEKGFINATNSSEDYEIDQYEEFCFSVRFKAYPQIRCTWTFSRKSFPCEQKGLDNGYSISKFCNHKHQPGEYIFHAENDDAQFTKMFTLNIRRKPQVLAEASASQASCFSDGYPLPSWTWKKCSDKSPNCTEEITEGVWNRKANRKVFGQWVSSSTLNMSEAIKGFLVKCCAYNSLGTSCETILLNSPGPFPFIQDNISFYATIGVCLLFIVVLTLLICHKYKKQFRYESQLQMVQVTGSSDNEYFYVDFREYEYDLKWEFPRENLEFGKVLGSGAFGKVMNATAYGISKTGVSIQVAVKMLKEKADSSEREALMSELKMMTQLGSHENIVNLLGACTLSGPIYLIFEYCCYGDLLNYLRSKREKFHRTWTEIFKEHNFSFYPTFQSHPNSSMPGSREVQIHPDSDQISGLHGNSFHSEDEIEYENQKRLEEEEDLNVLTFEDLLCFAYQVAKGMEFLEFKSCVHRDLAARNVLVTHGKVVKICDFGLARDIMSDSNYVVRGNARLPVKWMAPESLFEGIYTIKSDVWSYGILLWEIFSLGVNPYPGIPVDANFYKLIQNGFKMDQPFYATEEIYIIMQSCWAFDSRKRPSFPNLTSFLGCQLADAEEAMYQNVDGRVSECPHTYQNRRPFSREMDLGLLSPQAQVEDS

## CCc1ccccc1C(=O)Nc1n[nH]c2c(C)c(F)c(C3C(C#N)=C(C)N(C)C(C)=C3C#N)cc12 [BAY-3827]
[1]
  % of control: 11%

## O=C(NOC[C@H](O)CO)c1ccc(F)c(F)c1Nc1ccc(I)cc1F
[2]
  % of control: 100%
[3]
  % of control: 97%
[4]
  % of control: 100%

## CCc1cc(Nc2nccc(-c3c(-c4ccc(OC)c(C(=O)Nc5c(F)cccc5F)c4)nc4ccccn34)n2)c(OC)cc1N1CCC(N2CCN(S(C)(=O)=O)CC2)CC1
[5]
  % of inhibition: 38%

## COc1cc(N(C)c2ccnc3ccc(C(F)(F)F)cc23)cc(OC)c1OC
[6]
  % binding: 85%

## CN(C(=O)c1cnn2cccnc12)c1cc2c(cc1N1CCOCC1)C(=O)N(C[C@@H](F)C(C)(C)O)C2
[7]
  dTM: 1 K

## CC[C@@H]1[C@H](F)C(=O)N[C@@H]1COc1nccc2cc(C(N)=O)c(OC)cc12 [ZIMLOVISERTIB]
[8]; at 0.01 µM
  % of inhibition: 16.2%
[8]; at 0.04 µM
  % of inhibition: 3.7%
[8]; at 0.2 µM
  % of inhibition: -10%
[8]; at 1 µM
  % of inhibition: 15.7%
[8]; at 5 µM
  % of inhibition: 63.1%

## Cc1cc([C@@H](C)Nc2ccccc2C(=O)O)c2nc(N3CCOCC3)cc(=O)n2c1 [AZD-6482]
[9]
  % of control: 99%

## CN(C)CCOc1ccc(-c2nc(-c3ccncc3)c(-c3ccc4c(c3)CC/C4=N\O)[nH]2)cc1
[10]
  % of control: 100%
